Results published in patent publication US20220146526A1, “METHOD FOR EVALUATING SAMPLE, ANALYSIS METHOD, METHOD FOR DETECTING DEGRADED SAMPLE, MARKER FOR DETECTING DEGRADED BLOOD PLASMA SAMPLE, AND MARKER FOR DETECTING DEGRADED SERUM SAMPLE” (SHIMADZU CORPORATION, priority 2019, published 2022).

Key:
Format in all cases: physicochemical, human
[1] = GC/MS of serum sample: time from blood collection to centrifugation (Table G); conditions: blood collection to centrifugation; for Rate of increase or decrease: detection intensity relative to 1 at 15 minutes; for Increase or decrease: detection intensity
How it was run: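 Blood was held for varying times before centrifugation (room temperature, 3500 rpm, 5 min); serum was frozen, then methoxymated and trimethylsilylated for GC/MS with electron ionization in MRM mode. Values are detection intensities relative to the 15-minute collection-to-centrifugation condition, set as 1.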

[2] = GC/MS of blood plasma sample: time from blood collection to centrifugation (Table A); conditions: for Rate of increase or decrease: detection intensity relative to 1 at 15 minutes; for Rate of increase or decrease / Increase or decrease: blood collection to centrifugation; for Increase or decrease: detection intensity
How it was run: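 EDTA blood from a healthy subject was cooled at 4° C, centrifuged at 4° C, 3000 rpm, 15 minutes, and plasma was frozen. After methoxymation and trimethylsilylation, samples ran on GC/MS (BPX5 column, 60-330° C gradient, electron ionization, MRM). Intensity is relative to 15 minutes from collection to centrifugation.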

[3] = GC/MS of blood plasma sample: time from blood collection to cooling of blood (Table B); design: key to Rate of increase or decrease / Rate of increase or decrease (first value, increase): detection intensity relative to 1 at cooling time ≤1 min; conditions: for Rate of increase or decrease: detection intensity relative to 1 at 1 minute or less, blood collection to cooling 5 minutes; for Increase or decrease: detection intensity, blood collection to cooling 5 minutes or more vs 1 minute or less
Method: (§1) At room temperature, 5 mL of blood from a healthy subject was taken into a blood-collecting vessel containing EDTA, and the blood-collecting vessel was inverted for mixing, then cooled, and allowed to stand at 4° C. Here, in order to investigate how the detection intensity of molecules contained in the sample was affected in a case where the time to cooling was set to 5 minutes or more as compared to that in a case where the time to cooling was set to 1 minute or less, preparations were performed under both the former condition and the latter condition. After standing, the blood sample was subjected to centrifugation under a condition of 4° C., 3000 rpm, and 15 minutes. […] After centrifugation, the blood-collecting vessel was left to stand at room temperature for 30 minutes, and the blood plasma was isolated during this 30 minutes. The obtained blood plasma sample was frozen and stored. Here, in order to investigate how the detection intensity of molecules contained in the sample was affected in cases where freezing and thawing was performed 4 times, 6 times, and 10 times after freezing as compared to that in a case where freezing and thawing was performed 2 times after freezing, freezing and thawing was performed under the respective conditions of 2, 4, 6, and 10 times.
(§2) Frozen blood plasma samples and serum samples were subjected to GC/MS or LC/MS. In GC/MS, the blood plasma samples and serum samples were subjected to methoxymation and trimethylsilylation and then introduced to GC-MS.
(§3) GC/MS was conducted using GCMS·TQ8040 (Shimadzu Corporation) that was a GC·MS equipped with AOC·20i (Shimadzu Corporation) as an autosampler.
(§4) Column: BPX5 (inner diameter of 0.25 mm, length of 30 m, and film thickness of 0.25 μm) (SGE)
(§5) Column temperature: maintained at 60° C. for 2 minutes, then raised at 15° C./min, and maintained at 330° C. for 3 minutes.
(§6) Inlet temperature: 250° C.
(§7) Carrier gas control mode: constant linear velocity of 39.0 cm/sec
(§8) Sample introduction method: split (split ratio of 30:1) Injection volume: 1 μL
(§9) Ionization method: electron ionization
(§10) Ionization current: 60 μA
(§11) Interface temperature: 280° C.
(§12) Ion source temperature: 200° C.
(§13) Mode: multiple reaction monitoring (MRM)
Table B presents compounds of which the detection intensity increased or decreased by 30% or more in a case where the time from blood collection to cooling of blood, when a blood plasma sample was analyzed by GC/MS, was set to 5 minutes or more as compared to that in a case where the time was set to 1 minute or less. The rate of increase or decrease in Table B is the value of detection intensity relative to 1 that is the detection intensity in a case where the time from blood collection to cooling is set to 1 minute or less.

[4] = GC/MS of blood plasma sample: number of times of freezing and thawing (Table C); conditions: for Rate of increase or decrease: detection intensity relative to 1 at 2 times; for Increase or decrease: detection intensity
Method: as §1, §2, §3, §4, §5, §6, §7, §8, §9, §10, §11, §12, §13
The rate of increase or decrease in Table C is the value of detection intensity relative to 1 that is the detection intensity in a case where the number of times of freezing and thawing is set to 2 times.

[5] = GC/MS of serum sample: number of times of freezing and thawing (Table I); design: key to Rate of increase or decrease / Rate of increase or decrease (first value, increase): detection intensity relative to 2 freeze-thaw cycles = 1
How it was run: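 Serum was isolated after centrifugation at room temperature (3500 rpm, 5 min), frozen, and put through 2, 4, 6 or 10 freeze–thaw cycles. Samples were methoxymated and trimethylsilylated, then run by electron-ionization GC/MS in MRM mode on a BPX5 column (60 to 330 °C). Detection intensity is given relative to the 2-cycle sample, set as 1.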

[6] = GC/MS of serum sample: time from centrifugation to isolation (Table H); design: key to Rate of increase or decrease / Rate of increase or decrease (first value, increase): detection intensity relative to 1 at 30 min centrifugation-to-isolation; conditions: for Increase or decrease: detection intensity; for Rate of increase or decrease: detection intensity relative to 1 at 30 minutes
How it was run: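 Blood was centrifuged at room temperature, 3500 rpm, 5 min, and the vessel left at room temperature for 30 min, 1 h or 6 h before serum isolation. Serum was methoxymated, trimethylsilylated and analysed by GC/MS with electron ionization in MRM mode; intensities expressed relative to the 30-min condition (=1).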

[7] = LC/MS of blood plasma sample: time from blood collection to centrifugation (Table D); conditions: blood collection to centrifugation
How it was run: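 Healthy-subject blood (5 mL, EDTA) cooled and held at 4 °C before centrifugation (4 °C, 3000 rpm, 15 min), with plasma then frozen. LC/MS on Discovery HS F5-3 column at 40 °C, 0.1% formic acid water/acetonitrile, 0.25 mL/min, electrospray, MRM; intensities relative to 15 min collection-to-centrifugation set as 1.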

[8] = LC/MS of serum sample: number of times of freezing and thawing (Table M); design: key to Rate of increase or decrease: detection intensity relative to 1 at 2 freeze-thaw cycles
How it was run: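 Serum was isolated at room temperature after centrifugation at room temperature, 3500 rpm, 5 minutes, then frozen and freeze-thawed 2, 4, 6 or 10 times. LC/MS used a Discovery HS F5-3 column at 40° C with formic acid water/acetonitrile, electrospray MRM. Intensity is relative to 2 freeze-thaw cycles.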

[9] = detection intensity relative to 1 at 2 times, serum, GC/MS, freezing and thawing 4 times
[10] = detection intensity, serum, GC/MS, freezing and thawing 4 times vs 2 times
[11] = freezing and thawing 6 times vs 2 times

Rate of increase or decrease [3] | Increase or decrease [3] | Increase or decrease ([2]; after 4 hours vs 15 minutes) | Rate of increase or decrease [5, 9] | Increase or decrease [5, 10] | SMILES | Rate of increase or decrease ([1]; after 4 hours) | Increase or decrease ([1]; after 4 hours vs 15 minutes) | Increase or decrease [4, 11] | Increase or decrease ([6]; after 6 hours vs 30 minutes) | other results
0.70 | Decrease | Increase |  |  | CS(=O)(=O)CC[C@H](N)C(=O)O [Methionine sulfone] |  |  |  |  | Rate of increase or decrease ([4]; freezing and thawing 4 times): 1.77; Increase or decrease ([4]; freezing and thawing 4 times vs 2 times): Increase; Rate of increase or decrease ([2]; after 4 hours): 4.98
1.58 | Increase | Different from individual | 0.61 | Decrease | O=C(O)C(=O)O [Oxalic acid] | 1.31 | Increase |  | Increase | Rate of increase or decrease (second value, decrease) ([2]; different from individual to individual, individuals with decrease, relative to 1 at 15 minutes, collection to centrifugation, after 4 hours): 0.32; Rate of increase or decrease (first value, increase) ([2]; different from individual to individual, individuals with increase, relative to 1 at 15 minutes, collection to centrifugation, after 4 hours): 3.80; Rate of increase or decrease ([6]; after 6 hours): 1.67

The next lines start with the molecule.

SMILES | Rate of increase or decrease [3] | Increase or decrease [3] | Increase or decrease ([2]; after 4 hours vs 15 minutes) | Rate of increase or decrease [5, 9] | Increase or decrease [5, 10] | Rate of increase or decrease ([1]; after 4 hours) | Increase or decrease ([1]; after 4 hours vs 15 minutes) | Increase or decrease [4, 11] | Increase or decrease ([6]; after 6 hours vs 30 minutes) | other results
NCCS(=O)O [Hypotaurine] | 1.43 | Increase |  |  |  | 1.69 | Increase |  |  | Rate of increase or decrease ([2]; after 8 hours): 1.36; Increase or decrease ([2]; after 8 hours vs 15 minutes): Increase
CC(=O)NCCCC[C@H](N)C(=O)O [N6-acetyllysine] | 0.61 | Decrease |  | 0.67 | Decrease | 1.55 | Increase | Decrease | Different from individual | Rate of increase or decrease ([4]; freezing and thawing 6 times): 0.57; Rate of increase or decrease (second value, decrease) ([6]; different from individual to individual, individuals with decrease, relative to 1 at 30 minutes, after 6 hours): 0.58; Rate of increase or decrease (first value, increase) ([6]; different from individual to individual, individuals with increase, relative to 1 at 30 minutes, after 6 hours): 1.71
O=C[C@H](O)[C@H](O)[C@H](O)CO [Ribose] |  | Increase |  | 1.68 | Increase | 0.41 | Decrease | Different from individual |  | Rate of increase or decrease (second value, decrease) ([4]; different from individual to individual, individuals with decrease, relative to 1 at 2 times, freezing and thawing 6 times): 0.70; Rate of increase or decrease (first value, increase) ([4]; different from individual to individual, individuals with increase, relative to 1 at 2 times, freezing and thawing 6 times): 1.39; Rate of increase or decrease ([6]; after 1 hour): 1.76; Increase or decrease ([6]; after 1 hour vs 30 minutes): Increase
O=c1[nH]c(=O)c2[nH]c(=O)[nH]c2[nH]1 [Uric acid] | 0.49 | Decrease |  |  |  |  |  |  |  | Rate of increase or decrease ([5]; 10 times of freezing and thawing, relative to 1 at 2 times, different from individual to individual, first value (increase)): 1.33; Rate of increase or decrease ([5]; 10 times of freezing and thawing, relative to 1 at 2 times, different from individual to individual, second value (decrease)): 0.66; Number of times when compound is affected ([5]; serum sample, GC/MS, detection intensity changed by 30% or more vs 2 times of freezing and thawing): 10 times; Increase or decrease ([5]; serum sample, GC/MS, detection intensity vs 2 times of freezing and thawing): Different from individual; Rate of increase or decrease ([1]; after 8 hours): 0.69; Increase or decrease ([1]; after 8 hours vs 15 minutes): Decrease; Rate of increase or decrease ([2]; after 12 hours): 1.89; Increase or decrease ([2]; after 12 hours vs 15 minutes): Increase; Rate of increase or decrease ([7]; detection intensity relative to 1 at 15 minutes, after 12 hours): 1.52; Increase or decrease ([7]; detection intensity, after 12 hours vs 15 minutes): Increase; Rate of increase or decrease ([8]; 6 times of freezing and thawing, detection intensity relative to 1 at 2 times): 0.70; Number of times when compound is affected ([8]; serum sample, LC/MS, detection intensity changed by 30% or more vs 2 times of freezing and thawing): 6 times; Increase or decrease ([8]; serum sample, LC/MS, detection intensity vs 2 times of freezing and thawing): Decrease
